Data taken from patent US10800789B2, “Antiviral compounds” (Gilead Pharmasset LLC, priority 2012, dated 2020).
Like-named read-outs stand apart in the source and are kept apart here.

Experiments:
[1] = test system: NS5A chimeric genotype 2a JFH-1 replicon with genotype 2b MD2b-1 strain NS5A gene (M31 present); assay: Replicon assay, genotype 2b NS5A chimera; type: cell-based, HCV; conditions: Hepatitis C virus
How it was run: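 EC50 was fitted by non-linear regression to Renilla luciferase signal after 72 h of exposure to 3-fold serially diluted compound (10 mM DMSO stocks). Controls were DMSO (none) and ITMN-191 above 100×EC50 (full). Chimeric 2a replicons were used either stable or transiently transfected into Huh-Lunet cells.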

[2] = test system: stable HCV 2a JFH-1 Rluc replicon cells (L31 present in NS5A); assay: Renilla luciferase HCV replicon reporter assay, genotype 2a JFH-1; type: cell-based; conditions: Hepatitis C virus
How it was run: (§1)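 72 h compound exposure (3-fold dilutions from 10 mM DMSO stocks) of replicon cells: stable dicistronic RLuc 1a H77, 1b Con1, 2a JFH-1 (NS5A L31); J6-NS5A chimera in JFH-1 (M31), transient in Huh-Lunet or stable. Renilla luciferase read-out, non-linear regression → EC50. DMSO negative control.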

[3] = test system: NS5A chimeric genotype 1b Con1 replicon with genotype 3a S52 strain NS5A gene; assay: Replicon assay, genotype 3a NS5A chimera; type: cell-based, HCV; conditions: Hepatitis C virus
[4] = test system: stable HCV 1a RLuc replicon cells (dicistronic genotype 1a H77 replicon); assay: Renilla luciferase HCV replicon reporter assay, genotype 1a; type: cell-based; conditions: Hepatitis C virus, 72 h, stable 1a H77 RLuc replicon cells
How it was run: as §1

[5] = test system: NS5A chimeric genotype 2a JFH-1 replicon with genotype 2a J6 strain NS5A gene (M31 present); assay: Replicon assay, genotype 2a J6 NS5A chimera; type: cell-based, HCV; conditions: Hepatitis C virus
How it was run: as §1

[6] = test system: stable HCV 1b RLuc replicon cells (dicistronic genotype 1b Con1 replicon); assay: Renilla luciferase HCV replicon reporter assay, genotype 1b; type: cell-based; conditions: Hepatitis C virus, 72 h, stable 1b Con1 RLuc replicon cells, 72 hours; read-out: 1b
How it was run: as §1

[7] = test system: NS5A chimeric genotype 1b Con1 replicon with genotype 4a ED43 strain NS5A gene; assay: Replicon assay, genotype 4a NS5A chimera; type: cell-based, HCV; conditions: Hepatitis C virus
[8] = 2BS, read-out: 2b (s), stably replicating replicon cells (s), activity range
[9] = read-out: 2b (s) (nM), genotype 2b MD2b-1 NS5A chimeric replicon (M31), stably replicating replicon cells (s)
[10] = read-out: 2a JFH (nM), genotype 2a JFH-1 replicon (L31 in NS5A), stable cells
[11] = read-out: 2a JFH, stable 2a JFH-1 Rluc replicon cells, L31 in NS5A, activity range
[12] = read-out: 3a (s) (nM), genotype 3a NS5A chimeric replicon, stable replicon cells (s)
[13] = read-out: 3a (s), (s), activity range
[14] = read-out: 2a J6 (t) (nM), genotype 2a J6 NS5A chimeric replicon (M31), transiently transfected (t) into Huh-Lunet cells
[15] = read-out: 2a J6 (t), transiently transfected (t) into Huh-Lunet cells, activity range
[16] = read-out: 4a (s) (nM), genotype 4a NS5A chimeric replicon, stable replicon cells (s)
[17] = read-out: 4a (s), (s), activity range

## COC(=O)N[C@@H](CO)C(=O)N1[C@@H](C)CC[C@H]1c1nc2ccc3cc4c(cc3c2[nH]1)OCc1cc(-c2cnc([C@@H]3CC[C@H](C)N3C(=O)[C@@H](NC(=O)OC)C(C)C)[nH]2)ccc1-4 [GZ]
[1]; [8]
  EC50: 1 to 44 nM
[1]; [9]
  EC50: 1.15 nM
[2]; [10]
  EC50: 0.019 nM
[2]; [11]
  EC50: < 0.1 nM
[3]; [12]
  EC50: 0.158 nM
[3]; [13]
  EC50: 0.1 to 0.999 nM
[4]
  EC50: 0.042 nM
[4]; activity range
  EC50: < 0.1 nM
[5]; [14]
  EC50: 0.534 nM
[5]; [15]
  EC50: 0.1 to 0.999 nM
[6]
  EC50: 0.045 nM
[7]; [16]
  EC50: 0.031 nM
[7]; [17]
  EC50: < 0.1 nM

## CCC[C@H](NC(=O)OC)C(=O)N1[C@@H](C)CC[C@H]1c1ncc(-c2ccc3c(c2)COc2cc4c(ccc5nc([C@@H]6CC[C@H](C)N6C(=O)[C@H](CCC)NC(=O)OC)[nH]c54)cc2-3)[nH]1 [HA]
[1]; [8]
  EC50: 1 to 44 nM
[1]; [9]
  EC50: 5.42 nM
[2]; [10]
  EC50: 0.033 nM
[2]; [11]
  EC50: < 0.1 nM
[3]; [12]
  EC50: 0.132 nM
[3]; [13]
  EC50: 0.1 to 0.999 nM
[4]
  EC50: 0.018 nM
[4]; activity range
  EC50: < 0.1 nM
[5]; [14]
  EC50: 4.12 nM
[5]; [15]
  EC50: 1 to 44 nM
[6]
  EC50: 0.019 nM
[7]; [16]
  EC50: 0.028 nM
[7]; [17]
  EC50: < 0.1 nM

## [2H]C([2H])([2H])C([2H])(C([2H])([2H])[2H])[C@]([2H])(NC(=O)OC)C(=O)N1[C@@H](C)CC[C@H]1c1ncc(-c2ccc3c(c2)COc2cc4c(ccc5nc([C@@H]6CC[C@H](C)N6C(=O)[C@@]([2H])(NC(=O)OC)C([2H])(C([2H])([2H])[2H])C([2H])([2H])[2H])[nH]c54)cc2-3)[nH]1 [HB]
[1]; [8]
  EC50: 0.1 to 0.999 nM
[1]; [9]
  EC50: 0.49 nM
[2]; [10]
  EC50: 0.011 nM
[2]; [11]
  EC50: < 0.1 nM
[3]; [12]
  EC50: 0.038 nM
[3]; [13]
  EC50: < 0.1 nM
[4]
  EC50: 0.012 nM
[4]; activity range
  EC50: < 0.1 nM
[5]; [14]
  EC50: 0.155 nM
[5]; [15]
  EC50: 0.1 to 0.999 nM
[6]
  EC50: 0.012 nM
[7]; [16]
  EC50: 0.011 nM
[7]; [17]
  EC50: < 0.1 nM

## COC(=O)N[C@@H](C)C(=O)N1[C@@H](C)CC[C@H]1c1nc2ccc3cc4c(cc3c2[nH]1)OCc1cc(-c2cnc([C@@H]3CC[C@H](C)N3C(=O)[C@@H](NC(=O)OC)C(C)C)[nH]2)ccc1-4 [HC]
[1]; [8]
  EC50: 1 to 44 nM
[1]; [9]
  EC50: 1.82 nM
[2]; [10]
  EC50: 0.014 nM
[2]; [11]
  EC50: < 0.1 nM
[3]; [12]
  EC50: 0.105 nM
[3]; [13]
  EC50: 0.1 to 0.999 nM
[4]
  EC50: 0.012 nM
[4]; activity range
  EC50: < 0.1 nM
[5]; [14]
  EC50: 1.43 nM
[5]; [15]
  EC50: 1 to 44 nM
[6]
  EC50: 0.016 nM
[7]; [16]
  EC50: 0.014 nM
[7]; [17]
  EC50: < 0.1 nM

## COC(=O)N[C@H](C(=O)N1[C@@H](C)CC[C@H]1c1ncc(-c2ccc3c(c2)COc2cc4c(ccc5nc([C@@H]6CC[C@H](C)N6C(=O)[C@@H](NC(=O)OC)C6CC6)[nH]c54)cc2-3)[nH]1)C(C)C [HD]
[1]; [8]
  EC50: 1 to 44 nM
[1]; [9]
  EC50: 1.9 nM
[2]; [10]
  EC50: 0.017 nM
[2]; [11]
  EC50: < 0.1 nM
[3]; [12]
  EC50: 0.102 nM
[3]; [13]
  EC50: 0.1 to 0.999 nM
[4]
  EC50: 0.015 nM
[4]; activity range
  EC50: < 0.1 nM
[5]; [14]
  EC50: 1.39 nM
[5]; [15]
  EC50: 1 to 44 nM
[6]
  EC50: 0.017 nM
[7]; [16]
  EC50: 0.016 nM
[7]; [17]
  EC50: < 0.1 nM

## COC(=O)N[C@H](C(=O)N1[C@@H](C)CC[C@H]1c1ncc(-c2ccc3c(c2)COc2cc4c(ccc5nc([C@@H]6CC[C@H](C)N6C(=O)[C@@H](NC(=O)OC)C6CCCCC6)[nH]c54)cc2-3)[nH]1)C(C)C [HE]
[1]; [8]
  EC50: 1 to 44 nM
[1]; [9]
  EC50: 1.59 nM
[2]; [10]
  EC50: 0.017 nM
[2]; [11]
  EC50: < 0.1 nM
[3]; [12]
  EC50: 0.074 nM
[3]; [13]
  EC50: < 0.1 nM
[4]
  EC50: 0.011 nM
[4]; activity range
  EC50: < 0.1 nM
[5]; [14]
  EC50: 0.677 nM
[5]; [15]
  EC50: 0.1 to 0.999 nM
[6]
  EC50: 0.02 nM
[7]; [16]
  EC50: 0.014 nM
[7]; [17]
  EC50: < 0.1 nM

## COC(=O)N[C@@H](C)C(=O)N1[C@@H](C)CC[C@H]1c1ncc(-c2ccc3c(c2)COc2cc4c(ccc5nc([C@@H]6CC[C@H](C)N6C(=O)[C@H](C)NC(=O)OC)[nH]c54)cc2-3)[nH]1 [HF]
[1]; [8]
  EC50: 1 to 44 nM
[1]; [9]
  EC50: 16.3 nM
[2]; [10]
  EC50: 0.06 nM
[2]; [11]
  EC50: < 0.1 nM
[3]; [12]
  EC50: 0.556 nM
[3]; [13]
  EC50: 0.1 to 0.999 nM
[4]
  EC50: 0.043 nM
[4]; activity range
  EC50: < 0.1 nM
[5]; [14]
  EC50: 19.5 nM
[5]; [15]
  EC50: 1 to 44 nM
[6]
  EC50: 0.066 nM
[7]; [16]
  EC50: 0.111 nM
[7]; [17]
  EC50: 0.1 to 0.999 nM

## COC(=O)N[C@H](C(=O)N1CCC[C@H]1c1ncc(-c2ccc3c(c2)COc2cc4c(ccc5nc([C@@H]6CCCN6C(=O)[C@@H](NC(=O)OC)[C@@H](C)OC)[nH]c54)cc2-3)[nH]1)[C@@H](C)OC [HG]
[1]; [8]
  EC50: 0.1 to 0.999 nM
[1]; [9]
  EC50: 0.733 nM
[2]; [10]
  EC50: 0.021 nM
[2]; [11]
  EC50: < 0.1 nM
[3]; [12]
  EC50: 0.129 nM
[3]; [13]
  EC50: 0.1 to 0.999 nM
[4]
  EC50: 0.06 nM
[4]; activity range
  EC50: < 0.1 nM
[5]; [14]
  EC50: 0.185 nM
[5]; [15]
  EC50: 0.1 to 0.999 nM
[6]
  EC50: 0.109 nM
[7]; [16]
  EC50: 0.033 nM
[7]; [17]
  EC50: < 0.1 nM

## COC(=O)N[C@H](C(=O)N1CCC[C@H]1c1ncc(-c2ccc3c(c2)COc2cc4c(ccc5nc([C@@H]6CCCN6C(=O)[C@@H](NC(=O)OC)C6CCOCC6)[nH]c54)cc2-3)[nH]1)C1CCOCC1 [HI]
[1]; [8]
  EC50: 0.1 to 0.999 nM
[1]; [9]
  EC50: 0.203 nM
[2]; [10]
  EC50: 0.041 nM
[2]; [11]
  EC50: < 0.1 nM
[3]; [12]
  EC50: 0.447 nM
[3]; [13]
  EC50: 0.1 to 0.999 nM
[4]
  EC50: 0.203 nM
[4]; activity range
  EC50: 0.1 to 0.999 nM
[5]; [14]
  EC50: 0.2 nM
[5]; [15]
  EC50: 0.1 to 0.999 nM
[6]
  EC50: 0.416 nM
[7]; [16]
  EC50: 0.111 nM
[7]; [17]
  EC50: 0.1 to 0.999 nM

## CC[C@H]1C[C@@H](c2nc3ccc4cc5c(cc4c3[nH]2)OCc2cc(-c3cnc([C@@H]4CC[C@H](C)N4C(=O)[C@@H](NC(=O)OC)C(C)C)[nH]3)ccc2-5)N(C(=O)[C@H](C)NC(=O)OC)C1 [HK]
[1]; [8]
  EC50: 1 to 44 nM
[1]; [9]
  EC50: 11.5 nM
[2]; [10]
  EC50: 0.034 nM
[2]; [11]
  EC50: < 0.1 nM
[3]; [12]
  EC50: 0.705 nM
[3]; [13]
  EC50: 0.1 to 0.999 nM
[4]
  EC50: 0.017 nM
[4]; activity range
  EC50: < 0.1 nM
[5]; [14]
  EC50: 0.878 nM
[5]; [15]
  EC50: 0.1 to 0.999 nM
[6]
  EC50: 0.026 nM
[7]; [16]
  EC50: 0.02 nM
[7]; [17]
  EC50: < 0.1 nM
